Patent publication US5837548A, “Treatment of inflammation by inhibition of lipid body formation” (Beth Israel Hospital, priority 1995, dated 1998)

Experiments:
[1] = test system: neutrophils (arachidonic acid uptake); experiment: 14C-arachidonic acid uptake in arachidonic acid-stimulated neutrophils; assay type: cell-based, human
Description: Neutrophils (10^6 /mL) were labeled with ^14 C-arachidonic acid (0.01 μCi/sample) together with either vehicle, aspirin (10 μg/mL), indomethacin (1 μg/mL) or sodium salicylate (10 μg/mL) for 1 hour. After the incubation period, lipid body formation was elicited by arachidonic acid (15 μM). The cells were washed 3 times in Ca^++ /Mg^++ free HBSS and analysis of incorporated ^14 C-arachidonic acid in the cell pellet was performed by liquid scintillation counting.
^1 The cells were pretreated with ^14 Carachidonic acid (0.01
μCi/sample) plus vehicle, aspirin (10 μg/ml) , sodium salicylate (1
μg/ml) or indomethacin (1 μg/ml) 1 h before the incubation with
arachidonic acid (15 μM). Cells were washed 3 times before the analysi
of incorporated ^14 Carachidonic acid. Results are representative of
independent experiments.

colorectal cancer = conditions: humans taking drug regularly vs persons not taking; cited from earlier work

SMILES: CC(=O)Oc1ccccc1C(=O)O [aspirin]
- inhibition of 14C-arachidonic acid uptake ([1]; arachidonic acid-stimulated cells, aspirin 10 μg/mL, sodium salicylate 10 μg/mL, indomethacin 1 μg/mL): failed to inhibit
- 14C-AA uptake ([1]; stimulus arachidonate 15 μM, drug 10 μg/ml): 6974 cpm
- lower risk of developing colorectal cancer (colorectal cancer): 40-50%
